One series addresses NaV1.5 (Homo sapiens (Human), UniProt Q14524). Put plainly: Sodium Influx Assay (Flux), NaV1.5. The settings on record: read-out: Flux NaV1.5 IC50; Trex HEK293 cells, ANG2 dye; arithmetic mean.
The target of another series is NaV1.6 (Homo sapiens (Human), UniProt Q9UQD0). In words: Sodium Influx Assay (Flux), NaV1.6. Conditions: read-out: Flux NaV1.6 IC50; Trex HEK293 cells, ANG2 dye; arithmetic mean.
The next series deals with NaV1.1 (Homo sapiens (Human), UniProt P35498). Put plainly: Sodium Influx Assay (Flux), NaV1.1. It is filed as cell-based. The settings on record: Trex HEK293 cells, ANG2 dye; arithmetic mean.

Counter-ions that a name gives are not always drawn.

Sequence of NaV1.5 (Q14524 other isoform, or with tags, fused parts or gaps): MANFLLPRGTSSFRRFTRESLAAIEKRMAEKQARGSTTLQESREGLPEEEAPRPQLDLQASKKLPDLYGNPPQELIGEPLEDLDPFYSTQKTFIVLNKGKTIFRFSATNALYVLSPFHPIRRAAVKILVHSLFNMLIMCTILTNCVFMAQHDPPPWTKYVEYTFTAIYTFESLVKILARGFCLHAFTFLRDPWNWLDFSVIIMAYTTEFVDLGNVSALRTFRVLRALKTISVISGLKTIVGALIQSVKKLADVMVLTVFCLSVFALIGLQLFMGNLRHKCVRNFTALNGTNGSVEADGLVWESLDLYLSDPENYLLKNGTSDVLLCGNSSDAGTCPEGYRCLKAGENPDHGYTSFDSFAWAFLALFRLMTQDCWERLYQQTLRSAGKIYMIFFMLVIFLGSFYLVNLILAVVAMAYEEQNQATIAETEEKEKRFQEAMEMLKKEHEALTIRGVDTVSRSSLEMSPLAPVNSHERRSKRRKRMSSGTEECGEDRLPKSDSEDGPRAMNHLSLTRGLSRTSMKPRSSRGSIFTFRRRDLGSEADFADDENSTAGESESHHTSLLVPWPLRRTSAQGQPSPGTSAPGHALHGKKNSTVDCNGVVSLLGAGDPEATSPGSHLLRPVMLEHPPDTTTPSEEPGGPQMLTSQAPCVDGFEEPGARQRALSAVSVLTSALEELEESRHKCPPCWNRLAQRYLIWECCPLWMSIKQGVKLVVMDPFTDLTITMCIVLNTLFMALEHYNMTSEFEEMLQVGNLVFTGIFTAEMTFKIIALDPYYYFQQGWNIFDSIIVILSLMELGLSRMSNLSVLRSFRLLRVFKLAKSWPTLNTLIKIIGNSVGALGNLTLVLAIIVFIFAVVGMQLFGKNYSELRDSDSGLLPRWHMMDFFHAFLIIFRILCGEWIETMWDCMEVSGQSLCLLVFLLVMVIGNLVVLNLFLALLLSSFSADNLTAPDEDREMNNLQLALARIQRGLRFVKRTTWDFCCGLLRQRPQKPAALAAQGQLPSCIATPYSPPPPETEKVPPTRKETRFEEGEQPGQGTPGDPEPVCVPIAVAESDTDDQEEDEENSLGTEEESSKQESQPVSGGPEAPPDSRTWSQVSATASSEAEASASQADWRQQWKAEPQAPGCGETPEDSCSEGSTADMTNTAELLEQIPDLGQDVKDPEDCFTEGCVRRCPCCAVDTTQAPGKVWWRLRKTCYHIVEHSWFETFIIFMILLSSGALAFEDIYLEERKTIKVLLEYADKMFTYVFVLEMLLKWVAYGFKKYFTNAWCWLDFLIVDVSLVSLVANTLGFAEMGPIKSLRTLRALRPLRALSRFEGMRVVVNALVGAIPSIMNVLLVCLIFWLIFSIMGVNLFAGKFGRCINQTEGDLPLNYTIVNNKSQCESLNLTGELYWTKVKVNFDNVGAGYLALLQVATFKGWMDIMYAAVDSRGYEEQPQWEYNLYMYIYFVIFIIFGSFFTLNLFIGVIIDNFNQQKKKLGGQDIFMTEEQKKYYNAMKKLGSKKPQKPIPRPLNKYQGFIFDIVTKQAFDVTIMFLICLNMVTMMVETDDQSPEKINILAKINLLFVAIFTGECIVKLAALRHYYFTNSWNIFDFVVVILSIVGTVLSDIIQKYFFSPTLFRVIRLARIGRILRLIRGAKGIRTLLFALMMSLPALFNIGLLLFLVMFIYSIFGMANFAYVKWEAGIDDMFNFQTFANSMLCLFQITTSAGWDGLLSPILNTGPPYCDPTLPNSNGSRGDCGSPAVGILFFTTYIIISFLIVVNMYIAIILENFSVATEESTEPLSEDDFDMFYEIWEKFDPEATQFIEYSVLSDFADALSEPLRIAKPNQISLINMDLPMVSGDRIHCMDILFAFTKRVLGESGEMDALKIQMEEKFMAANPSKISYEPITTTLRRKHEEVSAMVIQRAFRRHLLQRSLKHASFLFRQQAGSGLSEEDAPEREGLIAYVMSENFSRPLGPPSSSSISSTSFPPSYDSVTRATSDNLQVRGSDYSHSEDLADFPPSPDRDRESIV

As to `Cc1c(N(C)[C@H]2CCN(Cc3ccccc3F)C2)cc(F)c(S(=O)(=O)Nc2cscn2)c1F` [Example 236, (S)-2,6-difluoro-4-((1-(2-fluorobenzyl)pyrrolidin-3-yl)(methyl)amino)-3-methyl-N-(thiazol-4-yl)benzenesulfonamide formate], the half-inhibitory concentration (IC50) (commonly the concentration at which inhibition is half-maximal) is greater than 30 µM on NaV1.5, 67 nM at NaV1.6 and 24.3 µM against NaV1.1.

Turning to `O=S(=O)(Nc1cscn1)c1cc(Cl)c(N[C@@H]2CN(Cc3ccccc3)CC23CC3)cc1F` [Example 264, (S)-4-((5-benzyl-5-azaspiro[2.4]heptan-7-yl)amino)-5-chloro-2-fluoro-N-(thiazol-4-yl)benzenesulfonamide 2,2,2-trifluoroacetate], the IC50 at NaV1.5 amounted to 13.1 µM; on NaV1.6 it was 4780 nM; at NaV1.1, 6.01 µM.

In the case of `O=S(=O)(Nc1nccs1)c1ccc(OC2CCN(Cc3ccc4ccccc4c3)CC2)c(Cl)c1` [Example 51, 3-chloro-4-((1-(naphthalen-2-ylmethyl)piperidin-4-yl)oxy)-N-(thiazol-2-yl)benzenesulfonamide 2,2,2-trifluoroacetate], the results for the IC50 on NaV1.5, on NaV1.6 and against NaV1.1 were 3.48 µM, 6580 nM and 17.6 µM, respectively.

In the case of `Cc1cc(S(=O)(=O)Nc2cscn2)c(F)cc1N(C)[C@H]1CCN(Cc2ccccc2F)C1` [Example 155, (S)-2-fluoro-4-((1-(2-fluorobenzyl)pyrrolidin-3-yl)(methyl)amino)-5-methyl-N-(thiazol-4-yl)benzenesulfonamide], the IC50 at NaV1.5 was found to be 14.4 µM; at NaV1.6, 220 nM; against NaV1.1, 12.6 µM.

In the case of `Cc1cc(C)cc(CN2CC[C@@H](Oc3ccc(S(=O)(=O)Nc4ncns4)cc3Cl)C2)c1` [Example 98, (R)-3-chloro-4-(1-(3,5-dimethylbenzyl)pyrrolidin-3-yloxy)-N-(1,2,4-thiadiazol-5-yl)benzenesulfonamide 2,2,2-trifluoroacetate], the results for the IC50 on NaV1.5, at NaV1.6 and at NaV1.1 were greater than 30 µM, 7530 nM and 21.9 µM, respectively.

In the case of `CN(c1cc(F)c(S(=O)(=O)Nc2cscn2)cc1Cl)[C@H]1CCN(CCCc2ccccc2)C1` [Example 196, (S)-5-chloro-2-fluoro-4-(methyl(1-(3-phenylpropyl)pyrrolidin-3-yl)amino)-N-(thiazol-4-yl)benzenesulfonamide], the results for the IC50 on NaV1.5, on NaV1.6 and against NaV1.1 were 8.2 µM, 1260 nM and 1.87 µM, respectively.

For the compound `CN(c1cc(F)c(S(=O)(=O)Nc2cscn2)cc1Cl)[C@H]1CCN(Cc2cccc(Br)n2)C1` [Example 178, (S)-4-((1-((6-bromopyridin-2-yl)methyl)pyrrolidin-3-yl)(methyl)amino)-5-chloro-2-fluoro-N-(thiazol-4-yl)benzene-sulfonamide], the results for the IC50 on NaV1.5, at NaV1.6 and against NaV1.1 were 16 µM, 1090 nM and 12.9 µM, respectively.

For the compound `C[C@H](c1ccccc1)N1CC[C@H](N(C)c2cc(F)c(S(=O)(=O)Nc3cccc(F)n3)cc2Cl)C1` [Example 45, 5-chloro-2-fluoro-N-(6-fluoropyridin-2-yl)-4-(methyl((S)-1-((R)-1-phenylethyl)pyrrolidin-3-yl)amino)benzenesulfonamide 2,2,2-trifluoroacetate], the IC50 at NaV1.5 was greater than 30 µM; at NaV1.6, 1980 nM; against NaV1.1, 11.2 µM.

Take `Cc1ccc(CN2CCC(Oc3ccc(S(=O)(=O)Nc4nccs4)cc3Cl)CC2)cc1` [Example 24, 3-chloro-N-(thiazol-2-yl)-4-((1-(4-methylbenzyl)piperidin-4-yl)oxy)benzenesulfonamide 2,2,2-trifluoroacetate]: the results for the 50% inhibitory concentration (IC50) on NaV1.5, on NaV1.6 and on NaV1.1 were 13.5 µM, 2540 nM and 12.6 µM, respectively.

With `CN(c1cc(F)c(S(=O)(=O)Nc2cscn2)cc1Cl)[C@H]1CCN(C2(c3ccccc3F)CCC2)C1` [Example 244, (S)-5-chloro-2-fluoro-4-((1-(1-(2-fluorophenyl)cyclobutyl)pyrrolidin-3-yl)(methyl)amino)-N-(thiazol-4-yl)benzenesulfonamide formate], the IC50 on NaV1.5 came to 5.08 µM; at NaV1.6 it was 1230 nM; at NaV1.1, 6.94 µM.

Regarding `C[C@@H]1C[C@@H](Oc2ccc(S(=O)(=O)Nc3nccs3)cc2Cl)CCN1Cc1ccccc1` (relative stereo) [Example 73, 4-((trans-1-benzyl-2-methylpiperidin-4-yl)oxy)-3-chloro-N-(thiazol-2-yl)benzenesulfonamide], the IC50 on NaV1.5 turned out to be 13.1 µM; on NaV1.6, 1880 nM; at NaV1.1 it was 5.85 µM.

As to `Cc1cc(S(=O)(=O)Nc2cscn2)c(F)cc1N(C)[C@H]1CCN(Cc2cccc(O)c2)C1` [Example 114, (S)-2-fluoro-4-((1-(3-hydroxybenzyl)-pyrrolidin-3-yl)(methyl)amino)-5-methyl-N-(thiazol-4-yl)benzenesulfonamide], the IC50 on NaV1.5 is greater than 30 µM; on NaV1.6 it was 2250 nM; on NaV1.1 it was 25.9 µM.

Regarding `Cc1cc(S(=O)(=O)Nc2cscn2)c(F)cc1N(C)[C@H]1CCN([C@H]2C[C@@H](c3ccccc3)C2)C1` [Example 109, 2-fluoro-5-methyl-4-(methyl((S)-1-((1s,3R)-3-phenylcyclobutyl)-pyrrolidin-3-yl)amino)-N-(thiazol-4-yl)benzenesulfonamide formate], the values for the IC50 on NaV1.5, at NaV1.6 and against NaV1.1 were 2.8 µM, 1110 nM and 1.99 µM, respectively.

For the compound `CC(c1ccccc1)N1CCC(Oc2cc(F)c(S(=O)(=O)Nc3nccs3)cc2Cl)CC1` (stereo not drawn) [Example 54, 5-chloro-2-fluoro-4-((1-(1-phenylethyl)piperidin-4-yl)oxy)-N-(thiazol-2-yl)benzenesulfonamide], the IC50 came to 16.7 µM on NaV1.5, 156 nM at NaV1.6 and 9.93 µM against NaV1.1.

As for `O=S(=O)(Nc1cscn1)c1cc(Cl)c(O[C@H]2CCN(Cc3cccc(C(F)F)c3)C[C@H]2F)cc1F` [Example 162, 5-chloro-4-(((3R,4S)-1-(3-(difluoromethyl)benzyl)-3-fluoropiperidin-4-yl)oxy)-2-fluoro-N-(thiazol-4-yl)benzenesulfonamide], the half-inhibitory concentration (IC50) at NaV1.5 turned out to be 5.78 µM; on NaV1.6, 6130 nM; at NaV1.1, 6.88 µM.

As for `O=S(=O)(Nc1nccs1)c1ccc(OC2CCN(Cc3ccccc3Cl)CC2)c(Cl)c1` [Example 13, 3-chloro-4-((1-(2-chlorobenzyl)piperidin-4-yl)oxy)-N-(thiazol-2-yl)benzenesulfonamide], the 50% inhibitory concentration (IC50) on NaV1.5 is 5.09 µM; at NaV1.6 it was 1700 nM; at NaV1.1, 6.83 µM.

Take `Cc1cc(S(=O)(=O)Nc2cscn2)c(F)cc1N(C)[C@H]1CCN(Cc2ccc(C(F)(F)F)o2)C1` [Example 142, (S)-2-fluoro-5-methyl-4-(methyl(1-((5-(trifluoromethyl)furan-2-yl)methyl)pyrrolidin-3-yl)amino)-N-(thiazol-4-yl)benzenesulfonamide]: the IC50 at NaV1.5 was determined as 6.76 µM; at NaV1.6, 531 nM; at NaV1.1, 3.7 µM.

For the compound `CN(c1cc(F)c(S(=O)(=O)Nc2cscn2)cc1Cl)[C@H]1CCN(Cc2ccc(Br)cc2)C1` [Example 217, (S)-4-((1-(4-bromobenzyl)pyrrolidin-3-yl)(methyl)amino)-5-chloro-2-fluoro-N-(thiazol-4-yl)benzenesulfonamide], the IC50 at NaV1.5 worked out at 6.7 µM; at NaV1.6 it was 5640 nM; against NaV1.1 it was 4.57 µM.

In the case of `Cc1cc(S(=O)(=O)Nc2cscn2)c(F)cc1N(C)[C@H]1CCN(Cc2cccc(C)c2F)C1` [Example 127, (S)-2-fluoro-4-((1-(2-fluoro-3-methylbenzyl)pyrrolidin-3-yl)(methyl)amino)-5-methyl-N-(thiazol-4-yl)benzenesulfonamide 2,2,2-trifluoroacetate], the values for the concentration for half-maximal inhibition (IC50) at NaV1.5, on NaV1.6 and on NaV1.1 were 10.1 µM, 520 nM and 10.7 µM, respectively.

In the case of `CC(C)Oc1cccc(CN2CC[C@H](N(C)c3cc(F)c(S(=O)(=O)Nc4cscn4)cc3Cl)C2)c1` [Example 177, (S)-5-chloro-2-fluoro-4-((1-(3-isopropoxybenzyl)-pyrrolidin-3-yl)(methyl)amino)-N-(thiazol-4-yl)benzene-sulfonamide compound with triethylamine (1:0.35)], the IC50 at NaV1.5 amounted to 7.52 µM; on NaV1.6 it was 3150 nM; on NaV1.1, 3.91 µM.

`C[C@H]1C[C@H](N(C)c2cc(F)c(S(=O)(=O)Nc3cscn3)cc2Cl)CN1Cc1ccccc1` [Example 231, 4-(((3S,5S)-1-benzyl-5-methylpyrrolidin-3-yl)(methyl)amino)-5-chloro-2-fluoro-N-(thiazol-4-yl)benzenesulfonamide formate]: the IC50 on NaV1.5 worked out at 15.1 µM; at NaV1.6, 5520 nM; against NaV1.1, 25.5 µM.

On to `Cc1cc(S(=O)(=O)Nc2cscn2)c(F)cc1N(C)[C@H]1CCN(Cc2ccn(CC(F)F)n2)C1` [Example 153, (S)-4-((1-((1-(2,2-difluoroethyl)-1H-pyrazol-3-yl)methyl)pyrrolidin-3-yl)(methyl)amino)-2-fluoro-5-methyl-N-(thiazol-4-yl)benzenesulfonamide 2,2,2-trifluoroacetate], for which the IC50 was greater than 30 µM at NaV1.5, 185 nM at NaV1.6 and greater than 30 µM against NaV1.1.

With `Cc1cc(S(=O)(=O)Nc2cscn2)c(F)cc1N(C)[C@H]1CCN(Cc2nccs2)C1` [Example 136, (S)-2-fluoro-5-methyl-4-(methyl(1-(thiazol-2-ylmethyl)pyrrolidin-3-yl)amino)-N-(thiazol-4-yl)benzenesulfonamide], the IC50 at NaV1.5 is greater than 30 µM; at NaV1.6 it was 6800 nM; at NaV1.1, greater than 30 µM.

For the compound `CN(c1cc(F)c(S(=O)(=O)Nc2cscn2)cc1Cl)[C@@H]1CCN(Cc2ccccc2)C1` [Example 262, (R)-4-((1-benzylpyrrolidin-3-yl)(methyl)amino)-5-chloro-2-fluoro-N-(thiazol-4-yl)benzenesulfonamide], the 50% inhibitory concentration (IC50) worked out at 28.8 µM at NaV1.5, 13300 nM at NaV1.6 and 25.2 µM at NaV1.1.

The values above are taken from patent US10246453B2, “Benzenesulfonamide compounds and their use as therapeutic agents” (Xenon Pharmaceuticals Inc., priority 2016, dated 2019).
